Values of other authors, collected in US12636263B2, “Carotenoid compound coming from plant and containing natural astaxanthin, preparation method therefor, and composition” (Zhejiang Medicine Co., Ltd. Xinchang Pharmaceutical Factory, priority 2013, dated 2026).

Columns and labels:
[1] = in animal body
[2] = versus natural VE
[3] = in vivo; Johnson and An, Crit. Rev. Biotechnol, 1991

| SMILES | bioavailability, higher than that of (3 R, 3 R)′-configuration [1] [wt %] | oxidizability (antioxidant) relative to natural VE [2] [times] | bioavailability, higher than that of astaxanthin in the form of fatty acid ester [3] |
| --- | --- | --- | --- |
| CC1=C(/C=C/C(C)=C/C=C/C(C)=C/C=C/C=C(C)/C=C/C=C(C)/C=C/C2=C(C)C(=O)[C@@H](O)CC2(C)C)C(C)(C)C[C@H](O)C1=O [(3 S, 3′S)-configuration, all-trans (3S, 3′S)-astaxanthin] | 15 |  |  |
| CC1=C(/C=C/C(C)=C/C=C/C(C)=C/C=C/C=C(C)/C=C/C=C(C)/C=C/C2=C(C)C(=O)C(O)CC2(C)C)C(C)(C)CC(O)C1=O (stereo not drawn) [astaxanthin, 3,3′-dihydroxy-4,4′-diketo-β,β′-carotene] |  | 1000 | higher than 15% |
